In patent US12532889B2, “Herbicidal compositions comprising glufosinate” (BASF SE, priority 2023, dated 2026):
Values joined by “and” are separate entries in the source; they are usually repeats but may differ in a detail not shown here. Identical values can stand only once.

Columns and labels:
Experiment in all cases: Post-emergence application in field trials (Example A)
Type in all cases: in vivo
ERISS (Erigeron sp.) = settings: Table 1.8, ERISS height 30-50 cm, 14 DAT, water 200 l/ha
Procedure: (§1) In the examples below, using the method of S. R. Colby (1967) “Calculating synergistic and antagonistic responses of herbicide combinations”, Weeds 15, p. 22ff., the value E, which is expected if the activity of the individual active compounds is only additive, was calculated:
(§2) [formula] • where • X=percent activity using active herbicide A at an application rate a; • Y=percent activity using active herbicide B (e.g. glufosinate) at an application rate b; • E=expected activity (in %) by A+B at application rates a+b.
(§3) If the value found experimentally is higher than the value E calculated according to Colby, a synergistic effect is present.
(§4) On field test sites, natural weed infestation or seeded weeds were treated post-emergence of the weeds.
(§5) In the field trials, the weeds were treated as indicated below.
(§6) In the following experiments, the herbicidal activity for the individual herbicidal compositions (solo and mixture applications) was assessed at the indicated days after treatment (DAT). The assessments for the damage on undesired weeds caused by the composition was carried out using a scale from 0 to 100%, compared to the untreated control plants. Here, 0 means no damage and 100 means complete destruction of the plants.

[1] = tested on: LOLMU (Lolium multiflorum)
Procedure: as §1, §2, §3, §4, §5, §6

[2] = tested on: BRAPL (Brachiaria plantaginea); settings: BRAPL growth stage 24, A-1 50, B-2 400 g ai/ha, water 200 l/ha
Procedure: as §1, §2, §3, §4, §5, §6

[3] = tested on: ECHCG (Echinocloa crus-galli); settings: B-2 400 g ai/ha, growth stage 23-30, height 15-20 cm
Procedure: as §1, §2, §3, §4, §5, §6

AVESG (Avena strigosa) = settings: Table 1.6; AVESG growth stage 11-21, height 5-10 cm; A-1 25, B-2 400 g ai/ha; 14 DAT; water 200 l/ha
Procedure: as §1, §2, §3, §4, §5, §6

[4] = tested on: DIGSA (Digitaria sanguinalis); settings: for % Herbicidal activity: B-2 400 g ai/ha, height 10-15 cm; for % herbicidal activity: Table 4.1, DIGSA height 2-8 cm, water 140 l/ha
Procedure: as §1, §2, §3, §4, §5, §6

[5] = tested on: DIGHO (Digitaria horizontalis); settings: Table 1.4, DIGHO growth stage 24, 14 DAT, water 200 l/ha
Procedure: as §1, §2, §3, §4, §5, §6

[6] = tested on: POLCO (Polygonum convolvulus); settings: Table 3.2, A-1 12.5, B-2 500 g ai/ha, 14 DAT, water 100 l/ha
Procedure: as §1, §2, §3, §4, §5, §6

[7] = tested on: HORVW (Hordeum vulgare (winter barley)); settings: B-2 400 g ai/ha, growth stage 23-29, height 20-25 cm
Procedure: as §1, §2, §3, §4, §5, §6

ZEAMX (Zea mays) = tested on: ZEAMX (Zea mays)
Procedure: as §1, §2, §3, §4, §5, §6

AVEFA (Avena fatua) = settings: Table 3.1; AVEFA growth stage 22-24, height 18-29 cm; A-1 12.5, B-2 500 g ai/ha; 28 DAT; water 100 l/ha
Procedure: as §1, §2, §3, §4, §5, §6

IPOTR (Ipomoea triloba) = settings: 21 DAT
Procedure: as §1, §2, §3, §4, §5, §6

[8] = tested on: BOILF (Spermacoce latifolia); settings: Table 1.16, A-1 25, B-2 400 g ai/ha, 21 DAT, water 200 l/ha
Procedure: as §1, §2, §3, §4, §5, §6

[9] = 7 DAT, B-2 400 g ai/ha, growth stage 22-25, height 20-25 cm

How did the “% herbicidal activity” value (ERISS (Erigeron sp.); A-1 25, B-2 400 g ai/ha) turn out when `CP(=O)(O)CCC(N)C(=O)O` (stereo not drawn) [B-2, glufosinate-ammonium] was run?
Its value is 40%.

What about the “% herbicidal activity” value (ERISS (Erigeron sp.); A-1 50, B-2 400 g ai/ha) of the same compound?
Its value is 40%.

What about the “% Herbicidal activity” value [1, 9] of the same compound?
The value was 70%.

What about the “% herbicidal activity” value [1, 9] of the same compound?
The value was 50%.

And the “% herbicidal activity” value ([1]; 21 DAT, B-2 400 g ai/ha, growth stage 22-25, height 20-25 cm)?
Its value is 30%.

And the “% Herbicidal activity” value ([1]; 28 DAT, B-2 400 g ai/ha, growth stage 22-25, height 20-25 cm)?
The value was 40%.

What about the “% herbicidal activity” value ([1]; Table 1.28, LOLMU growth stage 11-23, height 5-10 cm, A-1 25, B-2 400 g ai/ha, 28 DAT, water 200 l/ha) of the same compound?
Its value is 68%.

What about the “% herbicidal activity” value ([2]; Table 1.18, 21 DAT) of the same compound?
Its value is 18%.

What about the “% herbicidal activity” value ([2]; Table 1.4, 14 DAT) of the same compound?
The value was 55%.

What about the “% Herbicidal activity” value ([3]; 7 DAT) of the same compound?
The value was 60%.

And the “% herbicidal activity” value ([3]; 7 DAT)?
The value was 40% and 60%.

And the “% Herbicidal activity” value ([3]; 21 DAT)?
The value was 60%.

And the “% herbicidal activity” value ([3]; 21 DAT)?
Its value is 60%.

And the “% Herbicidal activity” value ([3]; 28 DAT)?
Its value is 60%.

And the “% herbicidal activity” value (AVESG (Avena strigosa))?
The value was 83%.

What about the “% Herbicidal activity” value ([4]; 20 DAT, growth stage 21-22) of the same compound?
The value was 20%.

What about the “% Herbicidal activity” value ([4]; 21 DAT, growth stage 22) of the same compound?
The value was 75%.

What about the “% Herbicidal activity” value ([4]; 41 DAT, growth stage 22) of the same compound?
The value was 55%.

What about the “% herbicidal activity” value ([4]; A-1 12.5, B-2 655 g ai/ha, 21 DAT) of the same compound?
The value was 49%.

And the “% herbicidal activity” value ([4]; A-1 25, B-2 655 g ai/ha, 21 DAT)?
Its value is 49%.

What about the “% herbicidal activity” value ([4]; A-1 50, B-2 655 g ai/ha, 21 DAT) of the same compound?
The value was 49%.

What about the “% herbicidal activity” value ([5]; A-1 25, B-2 400 g ai/ha) of the same compound?
The value was 30%.

And the “% herbicidal activity” value ([5]; A-1 50, B-2 400 g ai/ha)?
The value was 30%.

And the “% herbicidal activity” value [6]?
Its value is 28%.

And the “% Herbicidal activity” value ([7]; 7 DAT)?
The value was 60%.

What about the “% Herbicidal activity” value ([7]; 21 DAT) of the same compound?
The value was 30%.

And the “% herbicidal activity” value ([7]; 21 DAT)?
Its value is 40%.

And the “% herbicidal activity” value (ZEAMX (Zea mays); 7 DAT, B-2 400 g ai/ha, growth stage 15-16, height 50-60 cm)?
Its value is 75%.

What about the “% Herbicidal activity” value (ZEAMX (Zea mays); 21 DAT, B-2 400 g ai/ha, growth stage 15-16, height 27-33 cm) of the same compound?
Its value is 65%.

What about the “% herbicidal activity” value (ZEAMX (Zea mays); 21 DAT, B-2 400 g ai/ha, growth stage 15-16, height 50-60 cm) of the same compound?
Its value is 75%.

What about the “% herbicidal activity” value (ZEAMX (Zea mays); 28 DAT, B-2 400 g ai/ha, growth stage 15-16, height 50-60 cm) of the same compound?
Its value is 40%.

And the “% herbicidal activity” value (ZEAMX (Zea mays); Table 1.12, ZEAMX volunteer corn, A-1 50, B-2 400 g ai/ha, 21 DAT, water 100 l/ha)?
Its value is 47%.

What about the “% herbicidal activity” value (AVEFA (Avena fatua)) of the same compound?
Its value is 68%.

And the “% herbicidal activity” value (IPOTR (Ipomoea triloba); Table 1.11, A-1 25, B-2 400 g ai/ha, water 100 l/ha)?
The value was 60%.

And the “% herbicidal activity” value (IPOTR (Ipomoea triloba); Table 1.16, A-1 25, B-2 400 g ai/ha, water 200 l/ha)?
Its value is 68%.

And the “% herbicidal activity” value [8]?
The value was 73%.
